Values quoted from earlier work, collected in US11608532B2, “Precision medicine for treating and preventing suicidality” (Indiana University Research and Technology Corporation, priority 2017, dated 2023).
Read-outs that look alike come from different tables or passages of the source.

What was measured:
[1] = tested on: individual top biomarkers for suicidality; settings: for HTR2A modulated by drug in opposite direction to suicide: DE/2
[2] = tested on: top male bipolar biomarkers for suicidality
[3] = A. Top Universal Biomarkers, direction of change in suicidality (I)
[4] = C. Top Biomarkers in Females, direction of change in suicidality I
[5] = D. Top Biomarkers in Bipolar Disorder, direction of change in suicidality (I)
[6] = F. Top Biomarkers in Males with Bipolar Disorder, direction of change in suicidality (I)
[7] = biomarker HTR2A (5-hydroxytryptamine (serotonin) receptor 2A, G protein-coupled)
[8] = HTR2A, 244130_at, (I) in suicidality, male bipolars

Compound: CN1C(=O)CN=C(c2ccccc2)c2cc(Cl)ccc21 [Diazepam]
- Step 6 Drugs that Modulate the Biomarker in Opposite Direction to Suicide ([1]; biomarker AKAP13 (A kinase (PRKA) anchor protein 13)): Diazepam
- Step 6 Drugs that Modulate the Biomarker in Opposite Direction to Suicide ([1]; biomarker PGK1 (phosphoglycerate kinase 1)): Diazepam
- Step 6 Drugs that Modulate the Biomarker in Opposite Direction to Suicide ([1]; biomarker PSMB4): Diazepam
- Drugs that modulate the biomarker SPTBN1 ([1]; biomarker SPTBN1 (spectrin, beta, non-erythrocytic 1), Table 20 CFE drug-evidence): Diazepam
- Drugs that Modulate the Biomarker in Opposite Direction to Suicide ([2]; SPTBN1, 215918_s_at, (I) in suicidality, male bipolars): Diazepam

Compound: Cc1nc2n(c(=O)c1CCN1CCC(c3noc4cc(F)ccc34)CC1)CCCC2O (stereo not drawn) [Paliperidone]
- HTR2A modulated by drug in opposite direction to suicide [1, 3]: Paliperidone,
- HTR2A modulated by drug in opposite direction to suicide [1, 4]: Paliperidone,
- HTR2A modulated by drug in opposite direction to suicide [1, 5]: Paliperidone,
- HTR2A modulated by drug in opposite direction to suicide [1, 6]: Paliperidone,
- Step 6 Drugs that Modulate the Biomarker in Opposite Direction to Suicide [1, 7]: Paliperidone,
- Drugs that Modulate the Biomarker in Opposite Direction to Suicide [2, 8]: Paliperidone

Compound: Cc1nc2n(c(=O)c1CCN1CCC(c3noc4cc(F)ccc34)CC1)CCCC2 [Risperidone]
- IFNG modulated by drug in opposite direction to suicide ([1]; A. Top Universal Biomarkers, direction of change in suicidality (D), AP/1): Risperidone,
- Step 6 Drugs that Modulate the Biomarker in Opposite Direction to Suicide [1, 7]: Risperidone
- Drugs that Modulate the Biomarker in Opposite Direction to Suicide [2, 8]: Risperidone

Compound: CCCC(CCC)C(=O)O [Valproate]
- SLC4A4 modulated by drug in opposite direction to suicide ([1]; A. Top Universal Biomarkers, direction of change in suicidality (I), AP/1): Valproate
- HTR2A modulated by drug in opposite direction to suicide [1, 3]: Valproate
- SLC4A4 modulated by drug in opposite direction to suicide ([1]; B. Top Biomarkers in Males, direction of change in suicidality I, AP/2): Valproate
- TPR modulated by drug in opposite direction to suicide ([1]; C. Top Biomarkers in Females, direction of change in suicidality D, AP/4): Valproate
- HTR2A modulated by drug in opposite direction to suicide [1, 4]: Valproate
- HTR2A modulated by drug in opposite direction to suicide [1, 5]: Valproate
- TSPYL1 modulated by drug in opposite direction to suicide ([1]; E. Top Biomarkers in Depression, direction of change in suicidality (D), AP/1): Valproate
- GLIPR1 modulated by drug in opposite direction to suicide ([1]; E. Top Biomarkers in Depression, direction of change in suicidality (D), DE/1): Valproate
- HTR2A modulated by drug in opposite direction to suicide [1, 6]: Valproate
- TSPYL1 modulated by drug in opposite direction to suicide ([1]; G. Top Biomarkers in Males with Depression, direction of change in suicidality D, AP/1): Valproate
- Step 6 Drugs that Modulate the Biomarker in Opposite Direction to Suicide ([1]; biomarker CTTN (cortactin)): Valproate
- Step 6 Drugs that Modulate the Biomarker in Opposite Direction to Suicide [1, 7]: Valproate
- Step 6 Drugs that Modulate the Biomarker in Opposite Direction to Suicide ([1]; biomarker PKP4 (plakophilin 4)): Valproate
- Step 6 Drugs that Modulate the Biomarker in Opposite Direction to Suicide ([1]; biomarker PRKAR2B): Valproate
- Drugs that modulate the biomarker RBM3 ([1]; biomarker RBM3 (RNA binding motif (RNP1, RRM) protein 3), Table 20 CFE drug-evidence): Valproate
- Step 6 Drugs that Modulate the Biomarker in Opposite Direction to Suicide ([1]; biomarker SLC4A4): Valproate
- known drugs or classes of drugs that have an opposite effect to suicidality on the biomarker's direction of change (pharmacogenomics) (BioM50 panel biomarkers; biomarker BCL2 (B-cell CLL/lymphoma 2)): Valproate
- Matching to Treatments (Pharmacogenomics) Drugs that Modulate the Biomarker in opposite Direction to Suicide (BioM50 panel biomarkers; biomarker NR3C1, probeset 201866_s_at, (D) decreased in high suicidal ideation): Valproate
- Matching to Treatments (Pharmacogenomics) Drugs that Modulate the Biomarker in opposite Direction to Suicide (BioM50 panel biomarkers; biomarker PRKAR2B, probeset 203680_at, (D) decreased in high suicidal ideation): Valproate
- Drugs that Modulate the Biomarker in Opposite Direction to Suicide [2, 8]: Valproate

Compound: CN1CCN2c3ncccc3Cc3ccccc3C2C1 (stereo not drawn) [mirtazapine]
- HTR2A modulated by drug in opposite direction to suicide [1, 3]: mirtazapine,
- HTR2A modulated by drug in opposite direction to suicide [1, 4]: mirtazapine,
- HTR2A modulated by drug in opposite direction to suicide [1, 5]: mirtazapine,
- HTR2A modulated by drug in opposite direction to suicide [1, 6]: mirtazapine,
- Drugs that Modulate the Biomarker in Opposite Direction to Suicide [2, 8]: mirtazapine

Compound: omega-3 fatty acids [reference compound]
- Matching to Treatments (Pharmacogenomics) Drugs that Modulate the Biomarker in opposite Direction to Suicide (BioM50 panel biomarkers): Omega-3
- Drugs that Modulate the Biomarker in Opposite Direction to Suicide [2]: Omega-3
- Drugs that Modulate the Biomarker in Opposite Direction to Suicide (direction of change by drug) [2]: (I)
